This note sets out measurements from publication doi:10.1101/2025.11.27.690678v1, “Experience from an HTS campaign: Investigation of susceptibility and rescue of SARS-CoV-2 nsp3 protease assay from metal contamination” (biorxiv, 2025).

The assay concerns the target T1, SARS-CoV-2 nsp3 (Twinstrep nsp3 (179-1329)-His); PLPro (Severe acute respiratory syndrome coronavirus 2, UniProt P0DTD1).
T1 construct: gene rep
The experiment in a line: fluorescence, RLRGG-AMC cleavage. The class given is biochemical. From the text:
fluorescence, RLRGG-AMC cleavage on SARS-CoV-2 nsp3 (Twinstrep nsp3 (179-1329)-His); PLPro
`O=C(O)c1cn(-c2cccc(C(F)(F)F)c2)nn1` [compound 1, Compound 1] gave an IC50 above 100 µM.

In turn, `Cn1ccnc1-c1cn(CCCc2csc(N)n2)nn1` [compound 2, Compound 2] came in with an IC50 above 100 µM. The same measure for `COc1ccc(-n2cc(CNC(=O)c3cc[nH]n3)nn2)cc1` [compound 3, Compound 3]: above 100 µM; for `CC(=O)Nc1ccc(Sc2ccccc2C(=O)O)cn1` [compound 4, Compound 4]: above 100 µM.

Usually IC50 stands for the midpoint of a concentration-inhibition curve. Read a high IC50 as a need for much substance.
